Source: ChEMBL document CHEMBL1955733, “Optimization of 5-pyridazin-3-one phenoxypropylamines as potent, selective histamine H₃ receptor antagonists with potent cognition enhancing activity” (J Med Chem, 2012)

Assays:
[1] = Clearance in Sprague-Dawley rat at 1 mg/kg, iv and 5 mg/kg, po; assay type: ADME, organism-based; conditions: in vivo
[2] = Half life in Sprague-Dawley rat at 1 mg/kg, iv and 5 mg/kg, po; assay type: ADME, organism-based; conditions: in vivo
[3] = Oral bioavailability in Sprague-Dawley rat at 5 mg/kg; assay type: ADME, organism-based; conditions: in vivo
[4] = Ratio of drug level in brain to plasma in Sprague-Dawley rat at 10 mg/kg, ip after 1 hr; assay type: ADME, organism-based; design: dose 10 mg/kg, route intraperitoneal; conditions: brain and plasma, read-out: BPR
Histamine H3 receptor [5] = target: Histamine H3 receptor (Rattus norvegicus, UniProt Q9QYN8); test: Displacement of [3H]NAMH from rat cloned […] expressed in CHO cells; assay type: cell-based
Histamine H3 receptor [6] = target: Histamine H3 receptor (Homo sapiens, UniProt Q9Y5N1); test: Displacement of [3H]NAMH from human cloned […] expressed in CHO cells; assay type: cell-based
[7] = Oral bioavailability in Sprague-Dawley rat at 10 mg/kg; assay type: ADME, organism-based; conditions: in vivo

Histamine H3 receptor (Rattus norvegicus, UniProt Q9QYN8), sequence (Q9QYN8 whole entry): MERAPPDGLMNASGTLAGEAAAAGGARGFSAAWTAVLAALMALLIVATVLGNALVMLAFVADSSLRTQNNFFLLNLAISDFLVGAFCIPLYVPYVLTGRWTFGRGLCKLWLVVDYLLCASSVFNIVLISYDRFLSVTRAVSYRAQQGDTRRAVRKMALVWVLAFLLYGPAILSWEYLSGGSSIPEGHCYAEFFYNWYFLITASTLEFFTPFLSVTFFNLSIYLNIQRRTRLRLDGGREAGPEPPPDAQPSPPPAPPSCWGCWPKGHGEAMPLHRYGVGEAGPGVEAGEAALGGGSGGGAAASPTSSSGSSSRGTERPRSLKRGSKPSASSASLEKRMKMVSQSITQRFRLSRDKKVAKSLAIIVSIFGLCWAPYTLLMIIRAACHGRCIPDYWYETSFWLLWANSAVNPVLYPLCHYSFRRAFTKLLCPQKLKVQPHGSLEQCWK
Histamine H3 receptor (Homo sapiens, UniProt Q9Y5N1), sequence (Q9Y5N1 whole entry): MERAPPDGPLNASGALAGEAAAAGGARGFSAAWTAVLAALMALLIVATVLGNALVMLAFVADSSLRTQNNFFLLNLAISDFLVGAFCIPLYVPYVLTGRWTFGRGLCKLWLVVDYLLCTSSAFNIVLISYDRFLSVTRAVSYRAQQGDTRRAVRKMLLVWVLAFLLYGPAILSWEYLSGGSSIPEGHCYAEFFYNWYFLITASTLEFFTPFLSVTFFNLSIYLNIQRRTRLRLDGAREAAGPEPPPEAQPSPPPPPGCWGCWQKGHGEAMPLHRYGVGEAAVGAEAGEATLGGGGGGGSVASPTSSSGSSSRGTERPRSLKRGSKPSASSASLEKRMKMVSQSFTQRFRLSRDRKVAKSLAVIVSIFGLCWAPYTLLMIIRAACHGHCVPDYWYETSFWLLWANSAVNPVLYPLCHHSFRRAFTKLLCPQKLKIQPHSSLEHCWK

SMILES | clearance [1] | half-life [2] | bioavailability [3] | Kp at 1 h [4] | Ki (Histamine H3 receptor [5]) | Ki (Histamine H3 receptor [6]) | bioavailability [7]
C[C@H]1CCCN1CCCOc1ccc(-c2cnn(-c3ccccn3)c(=O)c2)cc1 | 45 mL/min/kg | 2.8 h | 52% | 1.7 |  |  | 
Cc1nn(C)c(=O)cc1-c1ccc(OCCCN2CCCCC2)cc1 | 48 mL/min/kg | 1.6 h | 69% | 2.4 | 18 nM | 8.9 nM | 
O=c1cc(-c2ccc(OCCCN3CCCCC3)cc2)cnn1-c1ccccn1 | 11 mL/min/kg | 1.6 h | 26% | 1.6 | 16 nM | 7.8 nM | 
Cc1cccnc1-n1nc(C)c(-c2ccc(OCCCN3CCC[C@H]3C)cc2)cc1=O | 7 mL/min/kg | 1.4 h | 20% | 0.5 | 17 nM | 3 nM | 
C[C@@H]1CCCN1CCCOc1ccc(-c2ccc(=O)[nH]n2)cc1 [IRDABISANT] |  |  |  | 2.6 | 8.5 nM |  | 83%
Cc1n[nH]c(=O)cc1-c1ccc(OCCCN2CCCCCC2)cc1 | 54 mL/min/kg | 1 h | 25% | 1.2 | 7.5 nM | 4.8 nM | 
Cn1ncc(-c2ccc(OCCCN3CCCCCC3)cc2)cc1=O |  |  |  |  | 22 nM | 8.1 nM | 

The next lines start with the values.

clearance [1] | half-life [2] | bioavailability [3] | Kp at 1 h [4] | Ki (Histamine H3 receptor [5]) | Ki (Histamine H3 receptor [6]) | bioavailability [7] | SMILES
23 mL/min/kg | 2.2 h | 12% | 1 | 4.4 nM | 1.8 nM |  | Cc1cccc(-n2ncc(-c3ccc(OCCCN4CCC[C@H]4C)cc3)cc2=O)n1
12 mL/min/kg | 0.3 h | 1% | 5.1 | 7 nM | 2.7 nM |  | CC(C)n1ncc(-c2ccc(OCCCN3CCC[C@H]3C)cc2)cc1=O
32 mL/min/kg | 1 h | 19% | 3.3 | 5.5 nM | 1.9 nM |  | C[C@@H]1CCCN1CCCOc1ccc(-c2cnn(C)c(=O)c2)cc1
